Assay results published in US9937162B2, “Methods of treating and preventing vascular instability diseases” (THE UNIVERSITY OF UTAH RESEARCH FOUNDATION, priority 2014, dated 2018).

Assays:
[1] = tested on: CDC42; assay: cdc42 activation assay (pulldown, western blot) in HMVEC-D cells; format: cell-based; settings: up to 10 μM, 60 minutes
Procedure: (§1) The timing of effects of cholecalciferol on the endothelium was assessed by evaluating the effect of knockdown of CCM2, and subsequent treatment with cholecalciferol, on a panel of signaling pathways associated with endothelial instability. The signaling pathways assessed included: ADP-ribosylation factor 6 (ARF6), cell division control protein 42 homolog (CDC42), transforming protein RhoA (RHOA), phosphorylation of myosin light chain (pMLC), Ras-related C3 botulinum toxin substrate 1 (RAC1), and Ras-related protein R-Ras (RRAS) (see Broman M T et al., Circ Res 98, 73-80 (2006); Broman M T et al., Trends Cardiovasc Med 17, 151-156 (2007); Eliceiri B P et al., Mol Cell 4, 915-924 (1999); Sawada J et al., Cancer Cell 22, 235-249 (2012); Weis S et al., J Cell Biol 167, 223-229 (2004); Wojciak-Stothard B et al., Vascul Pharmacol 39, 187-199 (2002); and Zhu W et al., Nature 492, 252-255 (2012)). […]
(§2) For RhoA, ARF6, Rac1/cdc42, and R-Ras activation assays, crude total cell lysate were generated and GTP-RhoA, ARF6, Rac1/cdc42, and R-Ras were precipitated with Rhotekin-RBD (EMD MILLIPORE), GGA3-PBD (CELL BIOLABS), PAK-1-PBD (EMD MILLIPORE), and Raf-1 RBD, respectively. […] RhoA, ARF6, Rac1/cdc42, and R-Ras were detected by western blotting with antibodies (RhoA, Rac1, and R-Ras antibodies were from CELL SIGNALING TECHNOLOGY; ARF6 and cad42 antibodies were from EMD MILLIPORE).

[2] = tested on: pMLC; assay: Phosphorylation of myosin light chain (pMLC) in siCCM2 HMVEC-D cells; format: cell-based; settings: siCCM2 HMVEC-D monolayers, 100 nM or 10 μM, 60 minutes
Procedure: The timing of effects of cholecalciferol on the endothelium was assessed by evaluating the effect of knockdown of CCM2, and subsequent treatment with cholecalciferol, on a panel of signaling pathways associated with endothelial instability. The signaling pathways assessed included: ADP-ribosylation factor 6 (ARF6), cell division control protein 42 homolog (CDC42), transforming protein RhoA (RHOA), phosphorylation of myosin light chain (pMLC), Ras-related C3 botulinum toxin substrate 1 (RAC1), and Ras-related protein R-Ras (RRAS) (see Broman M T et al., Circ Res 98, 73-80 (2006); Broman M T et al., Trends Cardiovasc Med 17, 151-156 (2007); Eliceiri B P et al., Mol Cell 4, 915-924 (1999); Sawada J et al., Cancer Cell 22, 235-249 (2012); Weis S et al., J Cell Biol 167, 223-229 (2004); Wojciak-Stothard B et al., Vascul Pharmacol 39, 187-199 (2002); and Zhu W et al., Nature 492, 252-255 (2012)).
Wild-type, siCTRL, or siCCM2 treated HMVEC-D cells were incubated with either 100 nM or 10 μM cholecalciferol (TOCRIS BIOSCIENCE), 7-DHC (SIGMA-ALDRICH), or vehicle (0.5% DMSO) for 60 minutes (pMLC, ARF6, RAC, CDC42, RRAS) or 24 hours (RHOA), unless otherwise indicated. After treatment, the cells were washed with ice-cold PBS and lysed in 50 mM Tris pH 7.4, 150 mM NaCl, 10 mM MgCl2, 10% glycerol, 1% NP-40, 1× protease inhibitors, and 1× phosphatase inhibitors.

[3] = tested on: RAC1; assay: Rac1 activation assay (pulldown, western blot) in HMVEC-D cells; format: cell-based; settings: up to 10 μM, 60 minutes
Procedure: as §1, §2

[4] = tested on: Ccm2 ecKO mice; assay: Chronic treatment of Ccm2 ecKO mice, CCM lesions quantified by postmortem MRI; format: in vivo; settings: treated from P5 to 5 months of age, tempol 1 mM in drinking water or cholecalciferol-enhanced chow (+25 IU/g D3)
Procedure: Chronic treatment studies of the effects of tempol and cholecalciferol in inducible endothelial-specific Ccm2 knockout mice (Ccm2^f/−; +/Tg(Pdgfb-iCreER^T2), also referred to herein as Ccm2 ecKO mice or endothelial knockout mice, were performed, inter alia, to evaluate the potential of tempol and/or cholecalciferol administration for the treatment of CCM disease (see Chan A C et al., J Clin Invest 121, 1871-1881 (2011) regarding the Ccm2 ecKO mice). 5 days after birth (P5), Ccm2 ecKO mice litters were assigned to a standard chow (HARLAN 2018, 1.5 IU/g D3), a standard chow plus tempol in drinking water (1 mM), or a cholecalciferol-enhanced chow (HARLAN 2018+25 IU/g D3). The chow was provided to the mother of each litter until the mice were weaned at P21. […]
At 5 months of age, mice were sacrificed by exsanguination (blood was collected for later analysis), and subsequent perfusion with saline and then 4% formaldehyde. […] Lesion area and number were quantified by two blinded reviewers using IMAGEJ and OSIRIX software. […]
The results of both reviewers were tabulated. […] FIG. 1B depicts a normalized number of CCM lesions as measured by MRI in Ccm2 ecKO mice. […] FIG. 1C is a graph depicting the number of lesions of various sizes as measured by MRI in Ccm2 ecKO mice. […]

[5] = tested on: ARF6; assay: ARF6 activation assay (GTP-ARF6 pulldown, western blot) in siCCM2 HMVEC-D cells; format: cell-based
Procedure: as §1, §2

[6] = tested on: RHOA; assay: RhoA activation assay (GTP-RhoA pulldown, western blot) in siCCM2 HMVEC-D cells; format: cell-based; settings: siCCM2 HMVEC-D monolayers, 100 nM or 10 μM, 24 hours
Procedure: as §1, §2

[7] = tested on: RRAS; assay: R-Ras activation assay (pulldown, western blot) in HMVEC-D cells; format: cell-based; settings: up to 10 μM, 60 minutes
Procedure: as §1, §2

Structure (SMILES)	basal activation of CDC42 [1]	CCM2 knockdown-induced activation of pMLC [2]	basal activation of RAC1 [3]	number of CCM lesions as measured by MRI, compared to standard chow [4]	time to inhibition of ARF6 activation ([5]; siCCM2 HMVEC-D cells, time course)	CCM2 knockdown-induced activation of ARF6 ([5]; siCCM2 HMVEC-D monolayers, 100 nM or 10 μM, 60 minutes)	CCM2 knockdown-induced activation of RHOA [6]	basal activation of RRAS [7]
C=C1CC[C@H](O)C/C1=C/C=C1\CCC[C@]2(C)[C@@H]([C@H](C)CCCC(C)C)CC[C@@H]12 [cholecalciferol]	nor did treatment of up to 10 μM cholecalciferol appear to basally inhibit activation	inhibited	nor did treatment of up to 10 μM cholecalciferol appear to basally inhibit activation	approximately half as many lesions	≤ 5 min	inhibited	inhibited	nor did treatment of up to 10 μM cholecalciferol appear to basally inhibit activation
CC1(C)CC(O)CC(C)(C)N1[O] [tempol, 4-hydroxy-2,2,6,6-tetramethylpiperidine 1-oxyl]	–	–	–	approximately half as many lesions	–	–	–	–
